Laboratory results published in article PMC11284788, “NN1213 – A Potent, Long-Acting, and Selective Analog of Human Amylin” (Journal of Medicinal Chemistry, 2024).
Converted amounts (≈) assume the structure as drawn. Like-named read-outs stand apart in the source and are kept apart here. Numbered stars: 1 amine (or outer) side, 2 acyl side, 3 side chain; on linkers, the order of the positions; unused ones are H or OH. Bridge positions count the residues as written; N and C are the ends. Side chains are listed from the residue outwards. Peptide text beside a SMILES is read from it. * marks the point of attachment. C20 diacid = O=C(O)CCCCCCCCCCCCCCCCCCC(=O)*; γGlu = O=C(O)[C@H](CCC(=O)[*:2])N[*:1]

What was measured:
rCTR = biological target: T1, rCTR (Rattus norvegicus, UniProt P32214); test: scintillation proximity binding assay, rCTR membranes
T1 construct: expressed in transfected cells; host or cells: BHK tk-ts 13, transient (FuGENE 6)
T1 sequence (P32214 25-479 isoform P32214-2 limits assumed): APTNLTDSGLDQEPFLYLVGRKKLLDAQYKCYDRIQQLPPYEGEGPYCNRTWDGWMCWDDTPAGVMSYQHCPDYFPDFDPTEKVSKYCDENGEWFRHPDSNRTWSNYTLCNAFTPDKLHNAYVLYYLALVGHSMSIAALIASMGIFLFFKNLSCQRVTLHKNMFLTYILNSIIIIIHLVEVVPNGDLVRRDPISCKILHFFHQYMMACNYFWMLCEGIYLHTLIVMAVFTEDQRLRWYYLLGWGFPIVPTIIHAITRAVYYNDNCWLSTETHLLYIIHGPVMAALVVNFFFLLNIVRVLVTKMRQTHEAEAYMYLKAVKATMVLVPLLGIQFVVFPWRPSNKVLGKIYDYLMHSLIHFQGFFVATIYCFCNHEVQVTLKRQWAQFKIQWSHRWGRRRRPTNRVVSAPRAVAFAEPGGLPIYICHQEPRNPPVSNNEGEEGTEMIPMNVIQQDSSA
Protocol: (§1) The apparent binding affinities were determined using a scintillation proximity assay with beads from PerkinElmer and cell membranes containing the AMY3R or CTRs. […] Membranes were harvested and membranes were prepared and kept at −80 °C until use. The assay was performed in a 384-well Optiplate (PerkinElmer). Membranes were mixed with scintillation proximity assay beads in a 1:1 ratio. […] Samples were analyzed on a TopCounter (Packard). The IC50 values were calculated using GraphPad Prism. See Supporting Information S7: SAR Screening Assay Methods (Binding Assays (Human and Rat)) for more information.
(§2) Binding Assays (Human and Rat). Brief descriptions of the methods used to determine binding affinities for SAR analysis are described below. Curves and IC50 values were plotted and calculated in GraphPad Prism using nonlinear regression (one site binding competition analysis), with pIC50 values […]
(§3) values were used to calculate the binding affinity ratios in order to express the selectivity of compounds for the AMY3R versus the CTR.
(§4) CTR Binding Assay. The binding assay was performed using scintillation proximity assay (SPA) beads (RPNQ0001) from PerkinElmer and cell membranes containing either the hCTR or rCTR. BHK […]
(§5) Membranes were prepared in the following way: the cells were rinsed with PBS and incubated with Versene for approximately 5 min before harvesting. The cells were flushed with PBS and the cell-suspension was centrifuged for 5 min at 1000 rpm. Cells were homogenized (Ultra Turrax) in a buffer […]
(§6) containing 20 mM Na-HEPES and 0.1 mM EDTA (pH 7.4, buffer 2). The resulting pellet was re-suspended in buffer 2 and protein concentration was measured (BCA protein assay, Pierce). The homogenate was kept cold during the whole procedure. The membranes were stored at –80 °C until […]
(§7) The binding assay was performed in a 384-well Optiplate (PerkinElmer) in a total volume of 40 μL.
(§8) Membranes were mixed with SPA beads in a 1:1 ratio. […]
(§9) mg/well. Test compounds were dissolved in DMSO and further diluted in assay buffer (50 mM HEPES, pH 7.4, 1 mM CaCl2, 5 mM MgCl2, 0.1% ovalbumin, and 0.02% Tween-20).
(§10) Calcitonin (NEX422 PerkinElmer) was dissolved in assay buffer and added to the Optiplate at a final […]
(§11) prior to centrifugation (1500 rpm, 10 min). Samples were analyzed on TopCounter (Packard).

hAMY3R = biological target: T2, hAMY3R (Homo sapiens, UniProt O60896+P30988); test: scintillation proximity binding assay, hAMY3R membranes; parameters: expressed in transfected cells; host or cells: BHK tk-ts 13, transient co-transfection; membranes for the SPA, whole cells for the species-specific assays; details: for ratio hCTR/hAMY3R: ratio of binding IC50 values
T2 sequence (P30988 25-474): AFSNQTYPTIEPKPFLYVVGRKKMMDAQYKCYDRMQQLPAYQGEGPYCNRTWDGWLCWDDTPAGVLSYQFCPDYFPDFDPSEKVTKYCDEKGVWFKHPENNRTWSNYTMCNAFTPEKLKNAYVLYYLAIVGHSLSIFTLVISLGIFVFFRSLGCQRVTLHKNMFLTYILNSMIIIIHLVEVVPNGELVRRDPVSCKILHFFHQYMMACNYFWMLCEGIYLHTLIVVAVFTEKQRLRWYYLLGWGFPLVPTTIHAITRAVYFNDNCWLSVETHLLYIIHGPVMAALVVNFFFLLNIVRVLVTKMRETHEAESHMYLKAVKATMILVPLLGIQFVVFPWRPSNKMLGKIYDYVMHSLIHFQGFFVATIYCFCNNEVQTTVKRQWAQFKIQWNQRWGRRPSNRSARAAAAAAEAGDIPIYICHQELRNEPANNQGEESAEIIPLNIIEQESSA
T2 sequence (O60896 24-148 partner): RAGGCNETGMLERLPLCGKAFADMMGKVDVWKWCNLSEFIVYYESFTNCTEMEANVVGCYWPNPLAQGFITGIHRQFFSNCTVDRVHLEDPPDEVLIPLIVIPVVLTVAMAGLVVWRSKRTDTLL
Protocol: as §1, §2, §3, §4, §5, §6, §7, §8, §9, §10, §11
AMY3R Binding Assay. The binding assay was performed using SPA beads (RPNQ0001) from PerkinElmer and cell membranes containing either the hAMY3R or rAMY3R. BHK tk-ts 13 cells were […]
as §5, with “and cultured as described above. Membranes” for “Membranes”, “buffer containing 20 mM Na-HEPES and 10 mM EDTA (pH 7.4), and” for “buffer”
The resulting pellet was re-suspended, homogenized, and
7.4, buffer 2). The resulting pellet was re-suspended in buffer 2 and protein concentration was measured (BCA protein assay, Pierce). The homogenate was kept cold during the whole procedure.
The membranes were stored at –80 °C until use.
Membranes were mixed with SPA beads in a 1:1 ratio. The final concentration of SPA beads was 0.05 mg/well. Test compounds were dissolved in DMSO and further diluted in assay buffer (50 mM […]
rAMY (NEX448 PerkinElmer) was dissolved in assay buffer and added to the Optiplate at a final

[1] = Solubility versus pH profile
hCTR = biological target: T3, hCTR (Homo sapiens, UniProt P30988); test: scintillation proximity binding assay, hCTR membranes; parameters: expressed in transfected cells; host or cells: BHK tk-ts 13, transient (FuGENE 6); membranes for the SPA, whole cells for the species-specific assays
T3 sequence (P30988 25-474): T2 sequence (P30988 25-474)
Protocol: as §1, §2, §3, §4, §5, §6, §7, §8, §9, §10, §11

[2] = SPA binding assay, Tables S13 and S15, read-out: rCTR pIC50 (converted)
[3] = SPA, BHK cell membranes, 125I-Calcitonin 75 pM, 120 min 25 °C, read-out: rCTR IC50
[4] = SPA binding assay, Tables S13 and S15, read-out: hAMY3R pIC50 (converted)
[5] = SPA, BHK cell membranes, 125I-rat amylin, 120 min 25 °C, read-out: hAMY3R IC50
[6] = bis-tris-propane buffer, pH 6, aqueous buffer
[7] = bis-tris-propane buffer, pH 6.5, aqueous buffer
[8] = bis-tris-propane buffer, pH 7, aqueous buffer
[9] = bis-tris-propane buffer, pH 7.5, aqueous buffer
[10] = bis-tris-propane buffer, pH 8, aqueous buffer
[11] = lactate buffer, pH 4, aqueous buffer
[12] = lactate buffer, pH 5, aqueous buffer
[13] = SPA binding assay, Tables S13 and S15, read-out: hCTR pIC50 (converted)
[14] = SPA, BHK cell membranes, 125I-Calcitonin 75 pM, 120 min 25 °C, read-out: hCTR IC50

Compound	IC50 (rCTR; [2]) [nM]	IC50 (rCTR; [3]) [nM]	IC50 (hAMY3R; [4]) [nM]	IC50 (hAMY3R; [5]) [nM]	ratio hCTR/hAMY3R (hAMY3R)	solubility kinetic [1, 6] [µM]	solubility kinetic [1, 7] [µM]	solubility kinetic [1, 8] [µM]	solubility kinetic [1, 9] [µM]	solubility kinetic [1, 10] [µM]	solubility kinetic [1, 11] [µM]	solubility kinetic [1, 12] [µM]	IC50 (hCTR; [13]) [nM]	IC50 (hCTR; [14]) [nM]	hCTR pIC50 (hCTR; SPA binding assay, Tables S13 and S15)
CC[C@H](C)[C@H](NC(=O)[C@@H]1CCCN1C(=O)CNC(=O)[C@H](Cc1ccccc1)NC(=O)[C@H](CC(N)=O)NC(=O)[C@@H]1CCCN1C(=O)[C@H](CO)NC(=O)[C@H](CO)NC(=O)[C@H](Cc1c[nH]cn1)NC(=O)[C@H](CCCNC(=N)N)NC(=O)[C@H](CC(C)C)NC(=O)[C@H](Cc1ccccc1)NC(=O)[C@H](CC(=O)O)NC(=O)[C@H](C)NC(=O)[C@H](CC(C)C)NC(=O)[C@H](CCCNC(=N)N)NC(=O)[C@H](CCC(N)=O)NC(=O)[C@@H](NC(=O)[C@H](C)NC(=O)[C@@H]1CSSC[C@H](NC(=O)[C@@H](N)CCCCNC(=O)CC[C@H](NC(=O)CC[C@H](NC(=O)CCCCCCCCCCCCCCCCCCC(=O)O)C(=O)O)C(=O)O)C(=O)N[C@@H](CC(N)=O)C(=O)N[C@@H]([C@@H](C)O)C(=O)N[C@@H](C)C(=O)N[C@@H]([C@@H](C)O)C(=O)N1)[C@@H](C)O)C(=O)N[C@@H](CC(C)C)C(=O)N[C@@H](CO)C(=O)N[C@@H](CO)C(=O)N[C@H](C(=O)N[C@@H](CC(N)=O)C(=O)N[C@H](C(=O)NCC(=O)N[C@@H](CO)C(=O)N[C@@H](CC(=O)O)C(=O)N[C@H](C(=O)N[C@@H](Cc1ccc(O)cc1)C(N)=O)[C@@H](C)O)C(C)C)[C@@H](C)O [Peptide 3] (H-K([γGlu-γGlu-C20 diacid])CNTATCATQRLADFLRHSSPNFGPILSSTNVGSDTY-NH2; disulfide 2-7)	355	356	5.13	5.09	14	1 (≈ 4.55 µg/mL)	1 (≈ 4.55 µg/mL)	1 (≈ 4.55 µg/mL)	1 (≈ 4.55 µg/mL)	2 (≈ 9.11 µg/mL)	1 (≈ 4.55 µg/mL)	1 (≈ 4.55 µg/mL)	74.1	74.1	
CC(C)C[C@H](NC(=O)[C@H](CCCNC(=N)N)NC(=O)[C@H](CCC(N)=O)NC(=O)[C@@H](NC(=O)[C@H](C)NC(=O)[C@@H]1CSSC[C@H](NC(=O)[C@@H](N)CCCCNC(=O)CC[C@H](NC(=O)CC[C@H](NC(=O)CCCCCCCCCCCCCCCCCCC(=O)O)C(=O)O)C(=O)O)C(=O)N[C@@H](CC(N)=O)C(=O)N[C@@H]([C@@H](C)O)C(=O)N[C@@H](C)C(=O)N[C@@H]([C@@H](C)O)C(=O)N1)[C@@H](C)O)C(=O)N[C@@H](C)C(=O)N[C@@H](CC(=O)O)C(=O)N[C@@H](Cc1ccccc1)C(=O)N[C@@H](CC(C)C)C(=O)N[C@@H](CCCNC(=N)N)C(=O)N[C@@H](Cc1c[nH]cn1)C(=O)N[C@@H](CO)C(=O)N[C@@H](CO)C(=O)N1CCC[C@H]1C(=O)N[C@@H](CC(N)=O)C(=O)N[C@@H](Cc1ccccc1)C(=O)NCC(=O)N[C@@H](C)C(=O)N1CCC[C@H]1C(=O)N[C@@H](CC(C)C)C(=O)N[C@@H](CO)C(=O)N[C@@H](CO)C(=O)N[C@H](C(=O)N[C@@H](CC(N)=O)C(=O)N[C@H](C(=O)NCC(=O)N[C@@H](CO)C(=O)N[C@@H](CC(=O)O)C(=O)N[C@H](C(=O)N[C@@H](Cc1ccc(O)cc1)C(N)=O)[C@@H](C)O)C(C)C)[C@@H](C)O [Peptide 5] (H-K([γGlu-γGlu-C20 diacid])CNTATCATQRLADFLRHSSPNFGAPLSSTNVGSDTY-NH2; disulfide 2-7)	105	106	1.12	1.12	27	≥ 200	≥ 200	≥ 200	≥ 200	≥ 200	≥ 200	172 (≈ 776 µg/mL)	30.2	30.2	
CC[C@H](C)[C@H](NC(=O)[C@H](C)NC(=O)CNC(=O)[C@H](Cc1ccccc1)NC(=O)[C@H](CC(N)=O)NC(=O)[C@@H]1CCCN1C(=O)[C@H](CO)NC(=O)[C@H](CO)NC(=O)[C@H](Cc1c[nH]cn1)NC(=O)[C@H](CCCNC(=N)N)NC(=O)[C@H](CC(C)C)NC(=O)[C@H](Cc1ccccc1)NC(=O)[C@H](CC(=O)O)NC(=O)[C@H](C)NC(=O)[C@H](CC(C)C)NC(=O)[C@H](CCCNC(=N)N)NC(=O)[C@H](CCC(N)=O)NC(=O)[C@@H](NC(=O)[C@H](C)NC(=O)[C@@H]1CSSC[C@H](NC(=O)[C@@H](N)CCCCNC(=O)CC[C@H](NC(=O)CC[C@H](NC(=O)CCCCCCCCCCCCCCCCCCC(=O)O)C(=O)O)C(=O)O)C(=O)N[C@@H](CC(N)=O)C(=O)N[C@@H]([C@@H](C)O)C(=O)N[C@@H](C)C(=O)N[C@@H]([C@@H](C)O)C(=O)N1)[C@@H](C)O)C(=O)N1CCC[C@H]1C(=O)N[C@@H](CO)C(=O)N[C@@H](CO)C(=O)N[C@H](C(=O)N[C@@H](CC(N)=O)C(=O)N[C@H](C(=O)NCC(=O)N[C@@H](CO)C(=O)N[C@@H](CC(=O)O)C(=O)N[C@H](C(=O)N[C@@H](Cc1ccc(O)cc1)C(N)=O)[C@@H](C)O)C(C)C)[C@@H](C)O [Peptide 6] (H-K([γGlu-γGlu-C20 diacid])CNTATCATQRLADFLRHSSPNFGAIPSSTNVGSDTY-NH2; disulfide 2-7)					55	≥ 200	190 (≈ 857 µg/mL)	≥ 200	≥ 200	≥ 200	≥ 200	≥ 200		19.5	7.71
